The compounds below were run on Rattus norvegicus (assay: Antipsychotic activity in albino rat assessed as duration of inhibition of conditioned avoidance behavior at 25 mg/kg administered intramuscularly). Details: route intramuscular.
Type: functional
`CCCCCC(=O)OCCN1CCN(CCCN2c3ccccc3Sc3ccc(C(F)(F)F)cc32)CC1.Cl` was tested, and the Time was 8 days. With `CC(C)CCC(=O)OCCN1CCN(CCCN2c3ccccc3Sc3ccc(C(F)(F)F)cc32)CC1.Cl` the Time was 8 days. `CCCCCCCCCCCC(=O)OCCN1CCN(CCCN2c3ccccc3Sc3ccc(C(F)(F)F)cc32)CC1.Cl` showed a Time of 28 days. In the case of `CCCCCCCCCCCCCC(=O)OCCN1CCN(CCCN2c3ccccc3Sc3ccc(C(F)(F)F)cc32)CC1.Cl`, the Time was 28 days. For `CCCCCCCCCC(=O)OCCN1CCN(CCCN2c3ccccc3Sc3ccc(C(F)(F)F)cc32)CC1` [FLUPHENAZINE DECANOATE], the Time was 12 days. `CCCCCCC(=O)OCCN1CCN(CCCN2c3ccccc3Sc3ccc(C(F)(F)F)cc32)CC1` [FLUPHENAZINE ENANTHATE] showed a Time of 28 days.

— ChEMBL document CHEMBL3244121, “Esters of 4-[3-[2-(trifluoromethyl)phenothiazin-10-yl]propyl]-1-piperazieneethanol and related compounds as long-acting antipsychotic agents. Synthesis of the 1-adamantoate, the first crystalline base” (1977)
